Numbered stars: 1 amine (or outer) side, 2 acyl side, 3 side chain; on linkers, the order of the positions; unused ones are H or OH. Bridge positions count the residues as written; N and C are the ends. Square brackets hold non-standard residues; d marks the D form. Peptide text beside a SMILES is read from it. Hyp = O=C(O)[C@@H]1C[C@@H](O)CN1; tBuAla = CC(C)(C)C[C@H](N)C(=O)O; X1 = O=C(CCC[*:2])[*:1]; Mpa = O=C(O)CCS; Sar = CNCC(=O)O
Columns and labels:
Vasopressin V1b receptor = molecular target: T1, Vasopressin V1b receptor (Homo sapiens, UniProt P47901); assay: Agonist activity at human V1b receptor expressed in CHO cells assessed as calcium mobilization measured after 30 mins by Fluo-4-AM dye based FLIPR assay; format: cell-based
T1 sequence (P47901 whole entry): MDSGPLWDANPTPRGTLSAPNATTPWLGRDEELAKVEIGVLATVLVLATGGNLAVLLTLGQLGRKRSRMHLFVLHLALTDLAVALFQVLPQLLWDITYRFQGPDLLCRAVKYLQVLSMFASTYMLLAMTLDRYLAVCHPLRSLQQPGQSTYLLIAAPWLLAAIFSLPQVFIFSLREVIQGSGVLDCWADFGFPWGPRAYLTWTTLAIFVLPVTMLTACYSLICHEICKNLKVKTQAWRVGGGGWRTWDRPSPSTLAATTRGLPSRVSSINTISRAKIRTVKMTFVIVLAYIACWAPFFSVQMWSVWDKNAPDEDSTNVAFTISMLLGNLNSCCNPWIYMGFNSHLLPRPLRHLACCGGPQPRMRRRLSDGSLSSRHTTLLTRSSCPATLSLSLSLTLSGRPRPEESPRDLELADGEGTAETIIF

Homo sapiens [1] = species: Homo sapiens; assay: Selectivity ratio of EC50 for human V1b receptor to EC50 for human OTR
Homo sapiens [2] = species: Homo sapiens; assay: Selectivity ratio of EC50 for human V1a receptor to EC50 for human OTR
Vasopressin V1a receptor = Vasopressin V1a receptor (Homo sapiens, UniProt P37288); assay: Agonist activity at human V1a receptor expressed in CHO cells assessed as calcium mobilization measured after 30 mins by Fluo-4-AM dye based FLIPR assay; format: cell-based
Chain of Vasopressin V1a receptor (P37288 whole entry): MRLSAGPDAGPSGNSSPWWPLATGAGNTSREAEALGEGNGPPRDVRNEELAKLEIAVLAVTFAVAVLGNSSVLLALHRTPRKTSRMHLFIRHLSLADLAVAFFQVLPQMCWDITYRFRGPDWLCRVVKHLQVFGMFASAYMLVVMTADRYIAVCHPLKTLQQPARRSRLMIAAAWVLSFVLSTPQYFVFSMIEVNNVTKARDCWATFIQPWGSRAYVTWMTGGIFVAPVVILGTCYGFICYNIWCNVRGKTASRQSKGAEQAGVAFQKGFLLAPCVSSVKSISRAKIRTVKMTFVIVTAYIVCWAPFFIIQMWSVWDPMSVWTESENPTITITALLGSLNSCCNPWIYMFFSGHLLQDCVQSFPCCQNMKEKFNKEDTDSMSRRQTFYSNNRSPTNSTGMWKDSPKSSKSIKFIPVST

Oxytocin receptor = molecular target: T2, Oxytocin receptor (Homo sapiens, UniProt P30559); assay: Agonist activity at human OTR expressed in CHO cells assessed as calcium mobilization measured after 30 mins by Fluo-4-AM dye based FLIPR assay; format: functional, cell-based
T2 sequence (P30559 whole entry): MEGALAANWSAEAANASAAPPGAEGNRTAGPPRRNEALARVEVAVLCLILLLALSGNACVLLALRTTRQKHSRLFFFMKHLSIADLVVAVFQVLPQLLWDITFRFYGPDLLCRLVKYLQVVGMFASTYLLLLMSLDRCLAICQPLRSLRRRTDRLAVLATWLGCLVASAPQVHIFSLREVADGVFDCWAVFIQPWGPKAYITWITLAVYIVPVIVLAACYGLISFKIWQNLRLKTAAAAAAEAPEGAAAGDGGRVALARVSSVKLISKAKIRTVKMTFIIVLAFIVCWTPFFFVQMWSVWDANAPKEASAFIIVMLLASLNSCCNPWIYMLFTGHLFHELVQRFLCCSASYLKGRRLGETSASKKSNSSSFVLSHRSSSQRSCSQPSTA

Compound | EC50 (Vasopressin V1b receptor) [nM] | Ratio EC50 (Homo sapiens [1]) | Ratio EC50 (Homo sapiens [2]) | EC50 (Vasopressin V1a receptor) [nM] | EC50 (Oxytocin receptor) [nM]
CC[C@H](C)[C@@H]1NC(=O)[C@H](Cc2ccc(O)cc2)NC(=O)CCSSC[C@@H](C(=O)N(C)CC(=O)N[C@@H](CC(C)C)C(=O)NCC(N)=O)NC(=O)[C@H](CC(N)=O)NC(=O)[C@H](CCC(N)=O)NC1=O ([Mpa]YIQNC[Sar]LG-NH2; disulfide 1-6) | > 100 | > 10000 | > 10000 | > 100 | 0.0069
CC[C@H](C)[C@@H]1NC(=O)[C@H](Cc2ccc(O)cc2)NC(=O)CCCSC[C@@H](C(=O)N2C[C@H](O)C[C@H]2C(=O)N[C@@H](CC(C)(C)C)C(=O)NCC(N)=O)NC(=O)[C@H](CC(N)=O)NC(=O)[C@H](CCC(N)=O)NC1=O (YIQNC[Hyp][tBuAla]G-NH2; linker N-5 via X1) | > 100 | > 10000 | > 10000 | > 100 | 0.0072
